Data reported in article PMC11983575, “Study on the synthesis and biological activity of kojic acid triazol thiosemicarbazide Schiff base derivatives” (Journal of Enzyme Inhibition and Medicinal Chemistry, 2025).

What was measured:
[1] = biological target: mushroom tyrosinase (Agaricus bisporus, UniProt C7FF04); assay: In vitro mushroom tyrosinase inhibition (L-DOPA substrate); assay type: biochemical; conditions: 475 nm, read-out: IC50 (μM) ± SD, inhibitory tyrosinase activity
Description: The mushroom tyrosinase inhibitory activity was determined according to previous described method. Briefly, 168 μl of phosphate buffer (0.1 M, pH 6.8), 10 μl of mushroom tyrosinase (0.5 mg/ml, Sigma Chemical, St. Louis, MO) and 2 μl of the inhibitor solution were placed in the wells of a 96-well micro plate. After pre-incubation for 20 min at 37 °C, 20 μl of 2.0 mg/ml L-DOPA (3,4-dihydroxyphenylalanine, Sigma Chemical, St. Louis, MO) was added and the enzyme activity was measured at 475 nm every 60 s for 180 s in a Microplate Reader (Bio-Rad Laboratories, Inc., Hercules, CA). Kojic acid and phosphate buffer were respectively used as positive and negative control. The extent of inhibition by the test compounds was expressed as the percentage of concentration necessary to achieve 50% inhibition (IC50). The percentage of inhibition was calculated as follows: inhibitory rate (%) = [Ac − At)/Ac] × 100. Ac is the absorbance of the negative control and At is the absorbance of the test compound. Each concentration was analysed in three independent experiments run in triplicate. The IC50 values were determined by the data analysis software GraphPad Prism 8 (La Jolla, CA).
The tyrosinase inhibition measurements of compounds 6a–6x were carried out using L-DOPA as substrate. Kojic acid was selected as a positive control compound. […]. […] Moreover, inhibitory activity of compound with hydroxyl group at papa position is better than the inhibitory activity of compound with hydroxyl group at meta position, and inhibitory activity of compound with hydroxyl group at meta position is better than the inhibitory activity of compound with hydroxyl group at ortho position. […]. […] In addition, with the increase of atomic radius, the inhibitory activity gradually decreases. (3) The inhibitory activity of alkoxy substituted compound is better than that of alkyl substituted compound. (4) Comparing the tyrosinase inhibitory activity of compounds with halogen atom (6b–6d, 6q–6s) and compounds with methyl or methoxy (6e–6f, 6t–6u), when the hydrogen (R^2) was replaced by the methyl (R^2), the inhibitory activity was decreased.

[2] = DPPH free radical scavenging activity assay; conditions: DPPH 150 μM, 30 min, 517 nm; read-out: DPPH/IC50 (μM) ± SD
Description: The anti-oxidation effect on DPPH radical was determined by a slightly modified version of a previously described DPPH radical scavenging assay. Reaction mixtures consisted of 100 μl of DPPH (150 μM), 20 μl of increasing concentration of test compounds and the volume was adjusted to 200 μl in each well with DMSO. The assay solution was then incubated at room temperature (25 °C) for 30 min in the dark. After the incubation, absorbance at 517 nm was measured by using UV-2600 spectrophotometer. The experiments were undertaken in triplicate. DMSO was used as a control. Ascorbic acid was used as antioxidant standard for comparison of the activity. The calculation of DPPH radical scavenging activity was followed by this formula: DPPH radical scavenging activity %=absorbance of standard−absorbance of sample/Absorbance of standard×100

[3] = ABTS radical cation scavenging activity assay; conditions: 734 nm; read-out: ABTS+/IC50 (μM) ± SD
Description: ABTS free radical scavenging activity was performed according to the procedure described by Zhang et al.[40] Test solution of ABTS decolourisation assay was prepared by mixing 2.45 mM potassium persulfate and 7 mM ABTS at 8:12 volume/volume ratio. The working solution was kept in the dark at room temperature for 12–18 h. Before ABTS radical scavenging test, the ABTS test solution was diluted with DMSO to absorbance of 0.7 (±0.02) at 734 nm. One millilitre of diluted ABTS test solution was added to 10 μl of DMSO or test sample. After initial mixing, the working solution was kept in the dark at room temperature for 2–6 min, and the absorbance was measured at 734 nm. This test was carried out in triplicate. DMSO was used as a control. Ascorbic acid was used as antioxidant standard for comparison of the activity. The absorbance of test samples was calculated by the following formula. ABTS scavenging ability %=absorbance of standard−absorbance of sample/absorbance of standard×100.

Sequence of mushroom tyrosinase (C7FF04 1-392): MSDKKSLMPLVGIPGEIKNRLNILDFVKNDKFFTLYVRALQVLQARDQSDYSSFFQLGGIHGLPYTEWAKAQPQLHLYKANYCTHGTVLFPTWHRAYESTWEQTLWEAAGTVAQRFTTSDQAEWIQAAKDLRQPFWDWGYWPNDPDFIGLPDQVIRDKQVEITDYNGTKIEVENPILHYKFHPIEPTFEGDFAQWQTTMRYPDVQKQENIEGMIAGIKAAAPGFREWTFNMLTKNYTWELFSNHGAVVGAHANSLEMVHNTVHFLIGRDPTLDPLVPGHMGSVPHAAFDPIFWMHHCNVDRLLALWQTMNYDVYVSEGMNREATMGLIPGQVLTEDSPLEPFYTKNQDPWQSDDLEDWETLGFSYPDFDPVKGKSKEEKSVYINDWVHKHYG

Compound | IC50 [1] [µM] | IC50 [2] [µM] | IC50 [3] [µM]
2-(1-(4-((1-((5-Hydroxy-4-oxo-4H-pyran-2-yl)methyl)-1H-1,2,3-triazol-5-yl)methoxy)-3-methylphenyl)ethylidene)hydrazinecarbothioamide [Compound 6x] | 2.35 ± 0.021 | 159.2 ± 0.061 | 19.94 ± 0.081
2-(3-((1-((5-Hydroxy-4-oxo-4H-pyran-2-yl)methyl)-1H-1,2,3-triazol-5-yl)methoxy)benzylidene)hydrazinecarbothioamide [Compound 6l] | 5.45 ± 0.077 | 81.67 ± 0.073 | 40.23 ± 0.071
2-(4-((1-((5-Hydroxy-4-oxo-4H-pyran-2-yl)methyl)-1H-1,2,3-triazol-5-yl)methoxy)-3-methoxybenzylidene)hydrazinecarbothioamide [Compound 6n] | 8.4 ± 0.009 | 176.2 ± 0.061 | 44.4 ± 0.068
2-(4-((1-((5-Hydroxy-4-oxo-4H-pyran-2-yl)methyl)-1H-1,2,3-triazol-5-yl)methoxy)-3-methylbenzylidene)hydrazinecarbothioamide [Compound 6o] | 12.38 ± 0.014 | 193.9 ± 0.022 | 17.95 ± 0.048
2-(4-((1-((5-Hydroxy-4-oxo-4H-pyran-2-yl)methyl)-1H-1,2,3-triazol-5-yl)methoxy)benzylidene)hydrazinecarbothioamide [Compound 6m] | 1.58 ± 0.092 | 195 ± 0.038 | 36.17 ± 0.018
CC(=NNC(N)=S)c1ccc(F)cc1OCc1cn(Cc2cc(=O)c(O)co2)nn1 [Compound 6q, 2-(1-(4-Fluoro-2-((1-((5-hydroxy-4-oxo-4H-pyran-2-yl)methyl)-1H-1,2,3-triazol-4-yl)methoxy)phenyl)ethylidene)hydrazinecarbothioamide] |  | 47.05 ± 0.042 | 6.61 ± 0.054
CC(=NNC(N)=S)c1ccc(Cl)cc1OCc1cn(Cc2cc(=O)c(O)co2)nn1 [Compound 6r, 2-(1-(4-Chloro-2-((1-((5-hydroxy-4-oxo-4H-pyran-2-yl)methyl)-1H-1,2,3-triazol-4-yl)methoxy)phenyl)ethylidene)hydrazinecarbothioamide] |  | 53.54 ± 0.088 | 4.49 ± 0.103
CC(=NNC(N)=S)c1ccc(Br)cc1OCc1cn(Cc2cc(=O)c(O)co2)nn1 [Compound 6s, 2-(1-(4-Bromo-2-((1-((5-hydroxy-4-oxo-4H-pyran-2-yl)methyl)-1H-1,2,3-triazol-4-yl)methoxy)phenyl)ethylidene)hydrazinecarbothioamide] |  | 105.8 ± 0.092 | 11.29 ± 0.033
COc1ccc(C(C)=NNC(N)=S)c(OCc2cn(Cc3cc(=O)c(O)co3)nn2)c1 [Compound 6t, 2-(1-(2-((1-((5-Hydroxy-4-oxo-4H-pyran-2-yl)methyl)-1H-1,2,3-triazol-4-yl)methoxy)-4-methoxyphenyl)ethylidene)hydrazinecarbothioamide] |  | 86.3 ± 0.058 | 3.91 ± 0.064
CC(=NNC(N)=S)c1ccc(C)cc1OCc1cn(Cc2cc(=O)c(O)co2)nn1 [Compound 6u, 2-(1-(2-((1-((5-Hydroxy-4-oxo-4H-pyran-2-yl)methyl)-1H-1,2,3-triazol-4-yl)methoxy)-4-methylphenyl)ethylidene)hydrazinecarbothioamide] |  | 55.7 ± 0.154 | 5.27 ± 0.078
CC(=NNC(N)=S)c1cccc(OCc2cn(Cc3cc(=O)c(O)co3)nn2)c1 [Compound 6v, 2-(1-(3-((1-((5-Hydroxy-4-oxo-4H-pyran-2-yl)methyl)-1H-1,2,3-triazol-4-yl)methoxy)phenyl)ethylidene)hydrazinecarbothioamide] |  | 16.27 ± 0.093 | 3.2 ± 0.091
O=C1O[C@H]([C@@H](O)CO)C(O)=C1O [Vitamin C, Ascorbic acid, reference compound] |  | 27.25 ± 0.015 | 55.48 ± 0.04
